Assay results taken from the supplement of paper PMC10307832.

Assays:
Experiment in all cases: relative viability (nuclei count vs DMSO), 5 days (fraction); higher = more cells survive
[1] = compound: COc1cc2nccc(Oc3ccc(NC(=O)C4(C(=O)Nc5ccc(F)cc5)CC4)cc3)c2cc1OC [Cabozantinib] + Cc1cc(Nc2cc(N3CCN(C)CC3)nc(Sc3ccc(NC(=O)C4CC4)cc3)n2)n[nH]1 [Tozasertib] (partner 0.1 µM)
In short: (§1)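 After 5 days of treatment, lung cancer cells in 1536-well plates were fixed and stained in a single step (final 0.05% Triton X-100, 1% formaldehyde, 1 ug/ml Hoechst) and their nuclei counted on 4× images. Treatment had been applied by pin tool the day after seeding as one drug alone or as a fixed anchor-drug dose with five library-drug doses (not always all listed) in √10 steps. Relative viability is the nuclei count of treated wells divided by that of vehicle wells, and values are medians of duplicate plates.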

[2] = compound: COc1cc2nccc(Oc3ccc(NC(=O)C4(C(=O)Nc5ccc(F)cc5)CC4)cc3)c2cc1OC [Cabozantinib] + CC(=O)c1c(C)c2cnc(Nc3ccc(N4CCNCC4)cn3)nc2n(C2CCCC2)c1=O [Palbociclib] (partner 0.5 µM)
In short: as §1

Cabozantinib + Alpelisib = compound: COc1cc2nccc(Oc3ccc(NC(=O)C4(C(=O)Nc5ccc(F)cc5)CC4)cc3)c2cc1OC [Cabozantinib] + Cc1nc(NC(=O)N2CCC[C@H]2C(N)=O)sc1-c1ccnc(C(C)(C)C(F)(F)F)c1 [Alpelisib] (partner 2 µM)
In short: as §1

[3] = compound: COc1cc2nccc(Oc3ccc(NC(=O)C4(C(=O)Nc5ccc(F)cc5)CC4)cc3)c2cc1OC [Cabozantinib] + CC(=O)Nc1cccc(-n2c(=O)n(C3CC3)c(=O)c3c(Nc4ccc(I)cc4F)n(C)c(=O)c(C)c32)c1 [Trametinib] (partner 0.02 µM)
In short: as §1

UMC-11
relative viability ([1]; first compound 0.02 µM): 0.192
relative viability ([1]; first compound 0.06325 µM): 0.2
relative viability ([1]; first compound 0.2 µM): 0.203
relative viability ([1]; first compound 0.6325 µM): 0.204
relative viability ([1]; first compound 2 µM): 0.202
relative viability ([2]; first compound 0.02 µM): 0.352
relative viability ([2]; first compound 0.06325 µM): 0.324
relative viability ([2]; first compound 0.2 µM): 0.336
relative viability ([2]; first compound 0.6325 µM): 0.312
relative viability ([2]; first compound 2 µM): 0.334
relative viability (Cabozantinib + Alpelisib; first compound 0.02 µM): 0.848
relative viability (Cabozantinib + Alpelisib; first compound 0.06325 µM): 1.1
relative viability (Cabozantinib + Alpelisib; first compound 0.2 µM): 1.01
relative viability (Cabozantinib + Alpelisib; first compound 0.6325 µM): 1.05
relative viability (Cabozantinib + Alpelisib; first compound 2 µM): 1.02
relative viability ([3]; first compound 0.02 µM): 0.666
relative viability ([3]; first compound 0.06325 µM): 0.808
relative viability ([3]; first compound 0.2 µM): 0.782
relative viability ([3]; first compound 0.6325 µM): 0.548
relative viability ([3]; first compound 2 µM): 0.69
